Experimental data: patent publication US20220211783A1, “GMCI AND DDRI COMBINATION THERAPY FOR TREATING CANCER” (Candel Therapeutics, Inc., priority 2019, published 2022)

Assays:
lung cancer cells = experiment: Double-stranded DNA breaks by H2AX-Ser139 staining, confocal microscopy; format: cell-based; settings: 6 hours after addition of AZD1775 (IC50 concentration) and/or GCV
[1] = test system: lung cell line e.g., A549, A427, H2030; experiment: Cell viability assay (vital dye such as Presto Blue, fluorescence) of GMCI, AZD1775 and their combination; format: cell-based

Question: Which results are given for C=CCn1c(=O)c2cnc(Nc3ccc(N4CCN(C)CC4)cc3)nc2n1-c1cccc(C(C)(C)O)n1 [AZD1775]?
Answer: Double-stranded DNA breaks (lung cancer cells): occur; H2AX(Ser139) staining (lung cancer cells; versus untreated cells): large increase in H2AX staining; cell viability (fluorescence normalized to samples that received no treatment) ([1]; Day 4, AZD1775 at its IC50 concentration or half of its IC50 concentration, GMCI = AdV-tk 100 MOI + ganciclovir 5 μg/ml): cytotoxic activity; EC50 ([1]; stated as the concentration used in the lung cell line, half the IC50 given as 40 nM, read-out: EC50 concentration of the drug): 0.08 µM
